Assay results taken from paper PMC3307806 (Molecular Pharmaceutics, 2012).
Entries after “also recorded” stand apart in the source; their conditions may differ.

Tests used:
[1] = tested on: P-gp at the human BBB; conditions: human PET study; cited from earlier work
[2] = Pseudo-steady-state blood CsA and plasma Lop/dLop concentrations in rats; conditions: 60 min; Student's t-test
[3] = tested on: P-gp (mdr1a/b); conditions: 7; cited from earlier work
[4] = target: P-gp at the rat BBB (Rattus norvegicus, UniProt Q6PSM0); conditions: absence of CsA, 60 min, n=5
P-gp at the rat BBB, sequence (Q6PSM0 1-1272): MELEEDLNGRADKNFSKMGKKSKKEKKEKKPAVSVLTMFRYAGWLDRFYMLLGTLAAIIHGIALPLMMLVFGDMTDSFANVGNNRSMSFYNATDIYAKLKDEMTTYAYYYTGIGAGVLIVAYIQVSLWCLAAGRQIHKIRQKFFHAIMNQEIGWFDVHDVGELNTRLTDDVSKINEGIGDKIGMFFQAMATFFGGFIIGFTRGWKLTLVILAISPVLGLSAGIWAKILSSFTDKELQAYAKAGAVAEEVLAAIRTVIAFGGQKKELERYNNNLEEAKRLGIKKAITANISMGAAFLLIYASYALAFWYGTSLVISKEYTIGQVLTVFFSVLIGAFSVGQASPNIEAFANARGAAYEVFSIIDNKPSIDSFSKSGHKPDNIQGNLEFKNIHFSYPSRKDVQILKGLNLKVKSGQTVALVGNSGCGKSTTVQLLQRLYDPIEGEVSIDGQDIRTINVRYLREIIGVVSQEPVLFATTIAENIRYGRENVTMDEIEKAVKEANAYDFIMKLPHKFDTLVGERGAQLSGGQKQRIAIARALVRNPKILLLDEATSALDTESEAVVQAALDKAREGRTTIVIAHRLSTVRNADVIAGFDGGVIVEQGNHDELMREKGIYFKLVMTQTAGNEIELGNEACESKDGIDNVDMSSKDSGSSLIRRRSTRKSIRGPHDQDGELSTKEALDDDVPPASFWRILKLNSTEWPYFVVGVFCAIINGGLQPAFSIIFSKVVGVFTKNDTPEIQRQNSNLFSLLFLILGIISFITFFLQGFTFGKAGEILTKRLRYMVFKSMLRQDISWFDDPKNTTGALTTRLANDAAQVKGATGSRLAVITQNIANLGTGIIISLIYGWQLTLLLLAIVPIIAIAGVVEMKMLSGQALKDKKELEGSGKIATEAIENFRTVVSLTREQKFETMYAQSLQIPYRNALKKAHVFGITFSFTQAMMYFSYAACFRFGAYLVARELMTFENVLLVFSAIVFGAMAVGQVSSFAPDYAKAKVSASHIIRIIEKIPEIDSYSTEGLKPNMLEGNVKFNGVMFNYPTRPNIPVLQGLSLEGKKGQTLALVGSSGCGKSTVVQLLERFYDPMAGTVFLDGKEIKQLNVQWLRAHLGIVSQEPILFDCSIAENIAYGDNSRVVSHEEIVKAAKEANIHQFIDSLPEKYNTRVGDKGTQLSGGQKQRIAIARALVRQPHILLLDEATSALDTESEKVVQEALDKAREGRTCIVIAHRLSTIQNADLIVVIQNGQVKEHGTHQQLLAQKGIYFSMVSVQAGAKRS

[5] = tested on: P-gp; conditions: verapamil-bodipy or prazosin-bodipy as probe substrate; cited from earlier work

SMILES | effect of the presence of CsA on pseudo-steady-state plasma concentration [2] | difference in potency (EC50) to inhibit P-gp depending on the probe substrate [5] | other results
CN([11CH3])C(=O)C(CCN1CCC(O)(c2ccc(Cl)cc2)CC1)(c1ccccc1)c1ccccc1 [11C-Lop] |  |  | share of radioactivity in the plasma [1]: 76%
CN(C)C(=O)C(CCN1CCC(O)(c2ccc(Cl)cc2)CC1)(c1ccccc1)c1ccccc1 [Lop, Loperamide] | did not significantly affect; also recorded: not significantly affected |  | 
Cc1c(O)cccc1C(=O)N[C@@H](CSc1ccccc1)[C@H](O)CN1C[C@H]2CCCC[C@H]2C[C@H]1C(=O)NC(C)(C)C [Nelfinavir] |  |  | increase in brain:blood concentration ratio in mdr1a/b(-/-) vs. wild-type mice [3]: 3400%
CNC(=O)C(CCN1CCC(O)(c2ccc(Cl)cc2)CC1)(c1ccccc1)c1ccccc1 [dLop, N-desmethyl Loperamide] | did not significantly affect; also recorded: not significantly affected |  | brain:plasma concentrations (ratio) corrected for vascular content [4]: 0.11 ± 0.04; brain:plasma concentrations (ratio) ([4]; not corrected for vascular content): 0.14 ± 0.04
CCC(C)n1ncn(-c2ccc(N3CCN(c4ccc(OCC5COC(Cn6cncn6)(c6ccc(Cl)cc6Cl)O5)cc4)CC3)cc2)c1=O (centres unmarked) [itraconazole] |  | 10 fold | 
C=C[C@H]1C[N@@]2CC[C@H]1C[C@@H]2[C@@H](O)c1ccnc2ccc(OC)cc12 [quindine] |  | 20 fold | 
